Test results as given in US20100055169A1, “CATIONIC LIPIDS AND USES THEREOF” (ABBOTT LABORATORIES, priority 2008, published 2010).

Experiments:
Format in all cases: physicochemical
Conditions in all cases: lipid:siRNA 25:1
[1] = Particle sizing by dynamic light scattering (DynaPro plate reader), in vitro formulations
Description: (§1) The siRNA concentrations were measured using Quanti-iT RiboGreen RNA reagent (Molecular Probes, (R11490)). Vesicle sizes were characterized by dynamic light scattering with a DynaPro™ Plate Reader (Wyatt Technology) in 96-well half-area UV plate (Coring) after diluting the formulation sample (20 μL) in phosphate buffered saline (80 μL) at a pH of about 7-8. A 1% agarose gel-based assay was used for analyzing nuclease degradation and protection. Encapsulation efficiency (EE) was calculated using data obtained from a RiboGreen assay.
Particle sizes and size distributions (PDI) were characterized by using dynamic light scattering (DLS). A DLS plate reader (Dynapro™, Wyatt Technology) was used for the DLS measurement. This DLS plate reader uses an 830 nm laser and the scattering angle is 158°. It also can control temperature from 4° C. to 70° C. A 96-well format was employed for the samples.
Samples for DLS analysis were prepared by mixing 20 μL of each sample stock solution with 80 μL PBS directly in the 96-well plate (#3697, Corning). Sample mixing was accomplished using a microplate shaker (Orbis, Mikura Ltd.). Plates were read at 20° C. with an acquisition time of 50 seconds for each sample, and data was analyzed with Wyatt Technology's Dynamics V6 software. To rule out potential multiple scattering artifacts, a second plate at 4-fold reduced sample concentrations was independently prepared by mixing 5 μL stock solutions with 95 μL PBS. Under our experimental conditions the results at the two concentrations were very similar, and the final reported result for each sample represents the average of values obtained from the two plates.

[2] = RiboGreen assay of siRNA encapsulation efficiency, in vitro formulations of Lipid-Based Particles
Description: The mixing solution of cationic lipids, cholesterol, non-cationic lipids and PEG-lipids was prepared in ethanol (total concentration at 10 mg/mL). siSTABLE (purchased from ThermoFisher) (sense-5′ GGGGAAAGCUGGCAAGAUUUU-3′SEQ ID NO. 1, antisense-5′-AAUCUUGCCAGCUUUCCCCUU-3′ SEQ ID NO: 2) % stock solution was prepared in 10 mg/mL of solution by dissolving 10 mg siRNA in 1 mL of RNAse-free UltraPure Water. The calculated amount of siRNA solution was added to 1 mL of citrate buffer (pH 4.0, 20 mM), to provide an siRNA concentration of 0.2 mg/mL, and warmed to 60 C. The calculated amount of lipid solution was warmed to 60 C, transferred to a 0.5 mL syringe with 28½ gauge needle, and injected into the citrate buffer with stirring at 60 C. After 3 minutes, 3 mL of PBS solution at room temperature (pH 7.4) was added into the lipid mixture with stirring. The Lipid-Based Particle solution was cooled to room temperature.
as §1
(§2) RNA concentration and encapsulation efficiency were determined using a Quant-iT® Ribogreen RNA reagent and kit available from Invitrogen. The siRNA was released from the Lipid-Based Particle using one of the following reagents: ethanol, Triton X-100, or phenol/chloroform. The siRNA concentration is quantified using fluorescent reading at 480 nm/520 nm.

[3] = Particle sizing assay (Zetasizer Nano ZS), in vivo formulations
Description: (§3) A round bottom flask was submerged into a 65° C. water bath. Citrate buffer (37.5 ml) of pH 4.0 was pipetted into the flask. The solution was stirred by a magnetic stirring bar at a speed of 900 rpm. Both the pH 4.0 citrate buffer and the lipid solution were pre-warmed in the 65° C. water bath for about 3 minutes. A siRNA solution (0.5 ml) was pipetted into the pH 4.0 citrate buffer. The 12.5 ml lipid mixture solution was injected through a 27 gauge needle into the citrate buffer in about 30 seconds. The needle tip was inserted into the solution during the injection. The resulting solution was stirred for 5 minutes at a speed of 900 rpm. The flask was pulled up from the water bath and a 50 ml pH 7.4 PBS buffer was added into the flask. The final solution was further mixed at a speed of 900 rpm for 5 minutes. For the diafiltration process, a dialysis filter (Millipore, 100K, Cat#PXB100C50) was used to remove ethanol in the above solution. When the volume was reduced to 20 ml during the initial diafiltration, 20 ml of pH 7.4 PBS was added to the sample solution. The diafiltration was continued until the volume was reduced to 20 ml. The diafiltration process was repeated 4 times. The volume of the sample solution was reduced to about 12 ml and pH 7.4 PBS was added to make the final volume of 15 ml. The 15 ml solution was filtered sequentially through the 0.45 and 0.22 μm sterile PVDF membrane filters (Millipore) and immediately transferred into a sterile vial.
For measurements of particle sizes and size distributions (PDI), lipid-based particles were prepared as described above. The particle solution (60 μL) was pipetted into a disposable cuvette (UVette, Eppendorf, cat#952010051) and measured in the “General Purpose” mode. Attenuator and position were optimized by the device. Measurements were performed using a Zetasizer Nano ZS (Malvern Instruments) equipped with a 4 mW He—Ne laser at a wavelength of 633 nm at 25° C. Scattered light was detected at a 173° backward scattering angle. The viscosity and refractive index of water at 25° C. was used for data analysis with the Dispersion Technology Software 5.00 (Malvern Instruments).

[4] = RiboGreen assay of siRNA encapsulation efficiency, in vivo formulations of Lipid-Based Particles
Description: as §2
The lipid solution was prepared (10 mg/ml) by dissolving the lipid in 200 proof ethanol. The lipid mixture solution is prepared according to the above composition in Table 5.
An siRNA (TetR_ODC—12, G.G.G.G.A.A.A.G.C.U.G.G.C.A.A.G.A.U.U.U.U SEQ ID NO: 1) (ThermoFisher) solution is prepared in a concentration of 10 mg/ml by dissolving 10 mg siRNA in 1 ml of DNAse/RNAse-free distilled water.
as §3

[5] = in vitro formulation a: Cationic lipid/Example 73/DSPC/Chol 45/10/15/30 wt %
[6] = in vitro formulation b: Cationic lipid/PEG-cholesterol/DSPC/Chol 45/10/15/30 wt %
[7] = in vivo formulation A: Cationic lipid/Example 73/DSPC/Chol 45/10/15/30 wt %
[8] = in vivo formulation I: Cationic lipid/PEG-DPPE/DSPC/Chol 45/10/15/30 wt %
[9] = in vivo formulation J: Cationic lipid/PEG-DSPE/DSPC/Chol 45/10/15/30 wt %
[10] = in vivo formulation L: Cationic lipid/PEG-DPG/DSPC/Chol 45/10/15/30 wt %

With `CCCCC/C=C\C/C=C\CCCCCCCCOCC(CCN1CCN(c2ccccc2)CC1)OCCCCCCCC/C=C\C/C=C\CCCCC` (stereo not shown) [Example 5, 1-{3,4-bis[(9Z,12Z)-octadeca-9,12-dienyloxy]butyl}-4-phenylpiperazine] the Size [1, 5] was 157 nm and the “Size distribution (PDI)” value [1, 5] was 0.070.

In the case of `CCCCC/C=C\C/C=C\CCCCCCCCOCC(CCN(C)C)OCCCCCCCC/C=C\C/C=C\CCCCC` (stereo not shown) [Example 4, N,N-dimethyl-3,4-bis[(9Z,12Z)-octadeca-9,12-dienyloxy]butan-1-amine], the “% Encapsulation Efficiency” value [2, 6] is reported as 97.5% and the Size [1, 6] is reported as 136.6 nm.

For `CCCCC/C=C\C/C=C\CCCCCCCCOC[C@@H](CCN1CCCC1)OCCCCCCCC/C=C\C/C=C\CCCCC` [Example 20, 1-{(3R)-3,4-bis[(9Z,12Z)-octadeca-9,12-dienyloxy]butyl}pyrrolidine], the “% Encapsulation Efficiency” value [2, 5] was 97.2%, the Size [1, 5] was 146 nm and the Size [3, 7] was 100 nm. For the same compound, the “Size distribution (PDI)” value [3, 7] was “(0.09)”.

For `CCCCC/C=C\C/C=C\CCCCCCCCOC[C@H](CCN1CCCC1)OCCCCCCCC/C=C\C/C=C\CCCCC` [Example 21, 1-{(3S)-3,4-bis[(9Z,12Z)-octadeca-9,12-dienyloxy]butyl}pyrrolidine], the “% Encapsulation Efficiency” value [2, 5] was 96.9%, the Size [1, 5] was 128 nm and the Size [3, 7] was 103 nm. For the same compound, the “Size distribution (PDI)” value [3, 7] was “(0.06)”.

For `CCCCC/C=C\C/C=C\CCCCCCCCOCC(CCN1CCC(OC)CC1)OCCCCCCCC/C=C\C/C=C\CCCCC` (stereo not shown) [Example 19, 1-{3,4-bis[(9Z,12Z)-octadeca-9,12-dienyloxy]butyl}-4-methoxypiperidine], the “% Encapsulation Efficiency” value [2, 5] was 94.2% and the Size [1, 5] was 152 nm.

In the case of `CCCCC/C=C\C/C=C\CCCCCCCCOCC(CCOCCN1CCN(C)CC1)OCCCCCCCC/C=C\C/C=C\CCCCC` (stereo not shown) [Example 28, 1-(2-{3,4-bis[(9Z,12Z)-octadeca-9,12-dienyloxy]butoxy}ethyl)-4-methylpiperazine], the “% Encapsulation Efficiency” value [2, 6] is reported as 94.3%, the “% Encapsulation Efficiency” value [4, 8] is reported as 99% and the “% Encapsulation Efficiency” value [4, 9] is reported as 99%. The “% Encapsulation Efficiency” value [4, 10] was 99%, the Size [3, 8] was 107.1 nm and the “Size distribution (PDI)” value [3, 8] was “(0.025)”. The Size [3, 9] was 80.2 nm, the “Size distribution (PDI)” value [3, 9] was “(0.026)” and the Size [3, 10] was 87 nm. For the same compound, the “Size distribution (PDI)” value [3, 10] was “(0.012)”.

For `CCCCC/C=C\C/C=C\CCCCCCCCOCC(CCN1CCCCC1)OCCCCCCCC/C=C\C/C=C\CCCCC` (stereo not shown) [Example 1, 1-{3,4-bis[(9Z,12Z)-octadeca-9,12-dienyloxy]butyl}piperidine], the Size [1, 6] was 96.3 nm, the “% Encapsulation Efficiency” value [4, 7] was 74% and the Size [3, 7] was 108 nm. For the same compound, the “Size distribution (PDI)” value [3, 7] was “(0.18)”.

In the case of `CCCCC/C=C\C/C=C\CCCCCCCCOCC(CCOCCN1CCCC1)OCCCCCCCC/C=C\C/C=C\CCCCC` (stereo not shown) [Example 31, 1-(2-{3,4-bis[(9Z,12Z)-octadeca-9,12-dienyloxy]butoxy}ethyl)pyrrolidine], the “% Encapsulation Efficiency” value [2, 6] is reported as 96.2%, the “% Encapsulation Efficiency” value [4, 7] is reported as 93.3% and the Size [3, 7] is reported as 136 nm. The “Size distribution (PDI)” value [3, 7] was “(0.0923)”.

For `CCCCC/C=C\C/C=C\CCCCCCCCOC[C@H](CCN(CC)CC)OCCCCCCCC/C=C\C/C=C\CCCCC` [Example 23, N-{(3S)-3,4-bis[(9Z,12Z)-octadeca-9,12-dienyloxy]butyl}-N,N-diethylamine], the “% Encapsulation Efficiency” value [2, 5] was 97.2% and the Size [1, 5] was 128 nm.

For `CCCCC/C=C\C/C=C\CCCCCCCCOCC(CCN(CC)CC)OCCCCCCCC/C=C\C/C=C\CCCCC` (stereo not shown) [Example 3, N,N-diethyl-3,4-bis[(9Z,12Z)-octadeca-9,12-dienyloxy]butan-1-amine], the “% Encapsulation Efficiency” value [2, 5] was 97.2%, the “% Encapsulation Efficiency” value [2, 6] was 96.9% and the Size [1, 5] was 192 nm. The Size [1, 6] was 113.4 nm, the Size [3, 7] was 116 nm and the “Size distribution (PDI)” value [3, 7] was “(0.12)”.

Compound `CCCCC/C=C\C/C=C\CCCCCCCCOCC(CCN1CCC(N(C)C)CC1)OCCCCCCCC/C=C\C/C=C\CCCCC` (stereo not shown) [Example 16, 1-{3,4-bis[(9Z,12Z)-octadeca-9,12-dienyloxy]butyl}-N,N-dimethylpiperidin-4-amine] has a Size [1, 5] of 70.9 nm.

In the case of `CCCCC/C=C\C/C=C\CCCCCCCCOC[C@@H](CCN(CC)CC)OCCCCCCCC/C=C\C/C=C\CCCCC` [Example 22, N-{(3R)-3,4-bis[(9Z,12Z)-octadeca-9,12-dienyloxy]butyl}-N,N-diethylamine], the “% Encapsulation Efficiency” value [2, 5] is reported as 86% and the Size [1, 5] is reported as 130 nm.

For `CCCCC/C=C\C/C=C\CCCCCCCCOCC(CCN(CCOC)CCOC)OCCCCCCCC/C=C\C/C=C\CCCCC` (stereo not shown) [Example 18, N,N-bis(2-methoxyethyl)-3,4-bis [(9Z,12Z)-octadeca-9,12-dienyloxy]butan-1-amine], the “% Encapsulation Efficiency” value [2, 5] was 94.1% and the Size [1, 5] was 104 nm.

With `CCCCC/C=C\C/C=C\CCCCCCCCOCC(CCN(C)Cc1ccccc1)OCCCCCCCC/C=C\C/C=C\CCCCC` (stereo not shown) [Example 11, N-benzyl-N-{3,4-bis[(9Z,12Z)-octadeca-9,12-dienyloxy]butyl}-N-methylamine] the Size [1, 5] was 154 nm and the “Size distribution (PDI)” value [1, 5] was 0.2.

For `CCCCC/C=C\C/C=C\CCCCCCCCOCC(CCN1CCN(C)CC1)OCCCCCCCC/C=C\C/C=C\CCCCC` (stereo not shown) [Example 6, 1-{3,4-bis[(9Z,12Z)-octadeca-9,12-dienyloxy]butyl}-4-methylpiperazine], the Size [1, 5] was 178 nm and the “Size distribution (PDI)” value [1, 5] was 0.16.

Work on `CCCCC/C=C\C/C=C\CCCCCCCCOCC(CCN1CCN(c2ccccc2OC)CC1)OCCCCCCCC/C=C\C/C=C\CCCCC` (stereo not shown) [Example 8, 1-{3,4-bis[(9Z,12Z)-octadeca-9,12-dienyloxy]butyl}-4-(2-methoxyphenyl)piperazine] yielded a Size [1, 5] of 130 nm.

For `CCCCC/C=C\C/C=C\CCCCCCCCOCC(CCN(C)CCc1ccccn1)OCCCCCCCC/C=C\C/C=C\CCCCC` (stereo not shown) [Example 10, N-{3,4-bis[(9Z,12Z)-octadeca-9,12-dienyloxy]butyl}-N-methyl-N-(2-pyridin-2-ylethyl)amine], the Size [1, 5] was 161 nm and the “Size distribution (PDI)” value [1, 5] was 0.168.
